Results published in patent US20250050042A1, “DRY POWDER FORMULATIONS FILLED IN AN INHALER WITH IMPROVED RESISTANCE TO HUMIDITY” (CHIESI FARMACEUTICI S.P.A., priority 2021, published 2025).
Counter-ions that a name gives are not always drawn.

Legend:
[1] = Aerosol performance by Next Generation Impactor (Example 4); format: physicochemical; set-up: MDD: unit not given beside the values; details: mean; for FPM: particles equal to or lower than 5.0 micron
[2] = In-use stability of aerosol performance (FPM drop, NGI) on storage at 30° C. and 75% relative humidity; format: physicochemical; details: in use at 30° C./75%
[3] = Sample A (coarse lactose batch A)
[4] = Sample A (coarse lactose batch A, tapped density 0.72)
[5] = Sample B (coarse lactose batch B)
[6] = Sample B (coarse lactose batch B, tapped density 0.69)
[7] = second block of Table 1 without sub-heading (co-micronization formulation), T = 0 + 1 M
[8] = second block of Table 1 without sub-heading (co-micronization formulation), T = 0 + 2 M
[9] = second block of Table 1 without sub-heading (co-micronization formulation), T = 0 + 3 M
[10] = simple mixing process formulation, T = 0 + 1 M, mean values
[11] = simple mixing process formulation, T = 0 + 1.5 M, mean values
[12] = simple mixing process formulation, T = 0 + 2 M, mean values
[13] = simple mixing process formulation, T = 0 + 3 M, mean values

SMILES	DD [1, 3]	FPF [1, 3]	MDD [1, 3]	FPM [1, 4]	DD [1, 5]	FPF [1, 5]	MDD [1, 5]	FPM [1, 6]	FPM drop (%) [2, 7]	FPM drop (%) [2, 8]	FPM drop (%) [2, 9]	FPM drop (%) [2, 10]	FPM drop (%) [2, 11]	FPM drop (%) [2, 12]	FPM drop (%) [2, 13]
CCC(=O)OCC(=O)[C@@]1(OC(=O)CC)[C@@H](C)C[C@H]2[C@@H]3CCC4=CC(=O)C=C[C@]4(C)[C@@]3(Cl)[C@@H](O)C[C@@]21C [BDP, (8S,9R,10S,11S,13S,14S,16S,17R)-9-chloro-11-hydroxy-10,13,16-trimethyl-3-oxo-17-[2-(propionyloxy)acetyl]-6,7,8,9,10,11,12,13,14,15,16,17-dodecahydro-3H-cyclopenta[a]phenanthren-17-yl propionate]	90.4	45%	92.4	41.6	88.6	33.4%	88.5	29.5	−10.4%	−20.3%	−19.6%	−22.1%	−30.5%	−26.3%	−30.2%
COc1ccc(CC(C)NCC(O)c2ccc(O)c(NC=O)c2)cc1 (centres unmarked) [FF, formoterol fumarate dihydrate]	5.6	48.4%	5.6	2.7	5.4	36.8%	5.4	2.0							
C[N+]1(C)CCC(OC(=O)C(O)(c2ccccc2)C2CCCC2)C1 (centres unmarked) [GB, glycopyrronium bromide]	11.4	41.3%	11.7	4.8	11.0	30.9%	11.1	3.4	−7.8%	−19.1%	−20.7%	−24.5%	−36.5%	−29.5%	−33.1%
